{"source": "PubChem BioAssay AID1259407", "about": "(Chemical Carcinogenesis Research Information System (CCRIS), 2018)", "test_system": "CCRIS mutagenicity, Ames/micronucleus/aberration tests", "experiment": "CCRIS mutagenicity studies", "conditions": "Test System: AMES SALMONELLA TYPHIMURIUM", "key": {"[1]": {"conditions": "Strain/Indicator: TA100, Metabolic Activation: NONE, Method: PREINCUBATION"}, "[2]": {"conditions": "Strain/Indicator: TA100, Metabolic Activation: NONE, Method: STANDARD PLATE"}, "[3]": {"conditions": "Strain/Indicator: TA1535, Metabolic Activation: NONE, Method: PREINCUBATION"}}, "note": "Calls of active or inactive are those of the source. No rule for the calls is given here.", "data": [{"smiles": "CC(=O)Nc1ccc2ccc3ccc(O)c4ccc1c2c34", "values": [{"measurement": "mutagenic call", "setting": "Strain/Indicator: TA98(1,8-DNP6), Metabolic Activation: NONE, Method: STANDARD PLATE", "value": "inactive; negative"}, {"measurement": "mutagenic call", "setting": "Strain/Indicator: TA98(1,8-DNP6), Metabolic Activation: RAT, LIVER, S-9, AROCLOR 1254, Method: STANDARD PLATE", "value": "inactive; negative"}, {"measurement": "mutagenic call", "setting": "Strain/Indicator: YG1024, Metabolic Activation: NONE, Method: STANDARD PLATE", "value": "inactive; negative"}, {"measurement": "mutagenic call", "setting": "Strain/Indicator: YG1024, Metabolic Activation: RAT, LIVER, S-9, AROCLOR 1254, Method: STANDARD PLATE", "value": "inactive; negative"}]}, {"smiles": "c1ccc2c(CCC3CO3)cccc2c1", "note": "(centres undefined)", "values": [{"measurement": "mutagenic call", "setting": "[1]", "value": "active; positive"}, {"measurement": "mutagenic call", "setting": "[2]", "value": "active; positive"}, {"measurement": "mutagenic call", "setting": "[3]", "value": "active; positive"}, {"measurement": "mutagenic call", "setting": "Strain/Indicator: TA1535, Metabolic Activation: NONE, Method: STANDARD PLATE", "value": "active; positive"}]}, {"smiles": "[O-][N+](=Nc1ccc2c(c1)Cc1ccccc1-2)c1ccc2c(c1)Cc1ccccc1-2", "values": [{"measurement": "mutagenic call", "setting": "Strain/Indicator: TA98, Metabolic Activation: NONE, Method: STANDARD PLATE", "value": "inactive; negative"}, {"measurement": "mutagenic call", "setting": "Strain/Indicator: TA98, Metabolic Activation: RAT, LIVER, S-9, AROCLOR 1254, Method: STANDARD PLATE", "value": "inactive; negative"}]}, {"smiles": "Oc1cnc2ccccc2c1", "values": [{"measurement": "mutagenic call", "setting": "[2]", "value": "inactive; negative"}, {"measurement": "mutagenic call", "setting": "Strain/Indicator: TA100, Metabolic Activation: RAT, LIVER, S-9, AROCLOR 1254 (10% OR 20%), Method: STANDARD PLATE", "value": "inactive; negative"}]}, {"smiles": "CCCCOC(=O)c1ccccc1C(=O)OC1CCCCC1", "values": [{"measurement": "mutagenic call", "setting": "Strain/Indicator: TA98, Metabolic Activation: HAMSTER, LIVER, S-9, AROCLOR 1254 (10%), Method: PREINCUBATION", "value": "inactive; negative"}, {"measurement": "mutagenic call", "setting": "Strain/Indicator: TA98, Metabolic Activation: NONE, Method: PREINCUBATION", "value": "inactive; negative"}, {"measurement": "mutagenic call", "setting": "Strain/Indicator: TA98, Metabolic Activation: RAT, LIVER, S-9, AROCLOR 1254 (10%), Method: PREINCUBATION", "value": "inactive; negative"}, {"measurement": "mutagenic call", "setting": "Strain/Indicator: TA100, Metabolic Activation: HAMSTER, LIVER, S-9, AROCLOR 1254 (10%), Method: PREINCUBATION", "value": "inactive; negative"}, {"measurement": "mutagenic call", "setting": "[1]", "value": "inactive; negative"}, {"measurement": "mutagenic call", "setting": "Strain/Indicator: TA100, Metabolic Activation: RAT, LIVER, S-9, AROCLOR 1254 (10%), Method: PREINCUBATION", "value": "inactive; negative"}, {"measurement": "mutagenic call", "setting": "Strain/Indicator: TA1535, Metabolic Activation: HAMSTER, LIVER, S-9, AROCLOR 1254 (10%), Method: PREINCUBATION", "value": "inactive; negative"}, {"measurement": "mutagenic call", "setting": "[3]", "value": "inactive; negative"}, {"measurement": "mutagenic call", "setting": "Strain/Indicator: TA1535, Metabolic Activation: RAT, LIVER, S-9, AROCLOR 1254 (10%), Method: PREINCUBATION", "value": "inactive; negative"}, {"measurement": "mutagenic call", "setting": "Strain/Indicator: TA1537, Metabolic Activation: HAMSTER, LIVER, S-9, AROCLOR 1254 (10%), Method: PREINCUBATION", "value": "inactive; negative"}, {"measurement": "mutagenic call", "setting": "Strain/Indicator: TA1537, Metabolic Activation: NONE, Method: PREINCUBATION", "value": "inactive; negative"}, {"measurement": "mutagenic call", "setting": "Strain/Indicator: TA1537, Metabolic Activation: RAT, LIVER, S-9, AROCLOR 1254 (10%), Method: PREINCUBATION", "value": "inactive; negative"}]}, {"smiles": "O=C(O)C1=C/C(=N\\Nc2ccc(-c3ccc(N=Nc4ccc(N/N=C5\\C=CC(=O)C(C(=O)O)=C5)c5cc(S(=O)(=O)O)ccc45)cc3)cc2)C=CC1=O", "values": [{"measurement": "mutagenic call", "setting": "Strain/Indicator: TA98, Metabolic Activation: HAMSTER, LIVER, S-9, Method: PREINCUBATION (PRIVAL METHOD)", "value": "active; positive"}]}, {"smiles": "C=C(C)[C@@H]1CC=C(C=O)CC1", "values": [{"measurement": "mutagenic call", "setting": "Strain/Indicator: TA97, Metabolic Activation: NONE, Method: PREINCUBATION", "value": "inactive; negative"}, {"measurement": "mutagenic call", "setting": "Strain/Indicator: TA97, Metabolic Activation: RAT, LIVER, S-9, AROCLOR 1254, Method: PREINCUBATION", "value": "inactive; negative"}, {"measurement": "mutagenic call", "setting": "Strain/Indicator: TA102, Metabolic Activation: NONE, Method: PREINCUBATION", "value": "inactive; negative"}, {"measurement": "mutagenic call", "setting": "Strain/Indicator: TA102, Metabolic Activation: RAT, LIVER, S-9, AROCLOR 1254, Method: PREINCUBATION", "value": "inactive; negative"}]}]}
